Assay results: US20260273046A1, “METHOD OF VACCINATING FOR CANCER AND DEVICE AND KIT THEREFOR” (priority 2023, published 2026)

Legend:
[1] = tested on: human THP-1 cells; experiment: CD80 and CD86 expression on stimulated THP-1 cells (flow cytometry); type: cell-based; conditions: Nano-11 80 μg/ml, ADU-S100 5 μg/ml, 24 and 48 hours
Description: For preparation of cells for activation in vitro, human THP-1 cells (TIB-202; American Type Culture Collection Manassas, VA) were cultured in complete RPMI (RPMI 1640 supplemented with 2 mM L-glutamine, 55 μM β-mercaptoethanol, 1×non-essential amino acids, 10 mM HEPES, 100 U/ml penicillin, 100 μg/ml streptomycin, and 0.25 μg/ml amphotericin) with 10% FBS. Cells were seeded at a density of 5×10^5 cells/well in a 96-well plate, stimulated with Nano-11 (80 μg/ml) and ADU-S100 (5 μg/ml) for 24 hours and 48 hours at 37° C. with 5% CO2, and then processed for flow cytometry analysis. […] THP1-Dual cells were subsequently stimulated with Nano-11 (80 μg/ml) and ADU-S100 (5 μg/ml) for 24 hours and 48 hours at 37° C. with 5% CO2, and the supernatants were collected for NF-κB and IRF pathway activation quantification.
(§1) For flow cytometry analysis, single-cell suspensions were prepared from isolated splenocytes or lymph nodes and washed with Cell Staining Buffer (CSB; BioLegend, San Diego, CA). […] Flow cytometry was conducted using an Attune NxT flow cytometer (Invitrogen, Waltham, MA), and the data were analyzed using FlowJo software (FlowJo, Ashland, OR).

[2] = tested on: NF-κB signaling pathway; experiment: NF-κB-SEAP reporter in THP1-Dual cells; type: cell-based, human; conditions: Nano-11 80 μg/ml, ADU-S100 5 μg/ml; FIG. 1E
Description: (§2) For preparation of cells for activation in vitro, human THP-1 cells (TIB-202; American Type Culture Collection Manassas, VA) were cultured in complete RPMI (RPMI 1640 supplemented with 2 mM L-glutamine, 55 μM β-mercaptoethanol, 1×non-essential amino acids, 10 mM HEPES, 100 U/ml penicillin, 100 μg/ml streptomycin, and 0.25 μg/ml amphotericin) with 10% FBS. Cells were seeded at a density of 5×10^5 cells/well in a 96-well plate, stimulated with Nano-11 (80 μg/ml) and ADU-S100 (5 μg/ml) for 24 hours and 48 hours at 37° C. with 5% CO2, and then processed for flow cytometry analysis. Similarly, the NF-κB-SEAP and IRF-Luc reporter THP1-Dual cells (InvivoGen, San Diego, CA) were grown at a density of 1×10^5 cells/well in a 96-well plate in complete RPMI supplemented with 10% FBS, 100 μg/ml zeocin, 100 μg/ml normocin, and 10 μg/ml blasticidin. THP1-Dual cells were subsequently stimulated with Nano-11 (80 μg/ml) and ADU-S100 (5 μg/ml) for 24 hours and 48 hours at 37° C. with 5% CO2, and the supernatants were collected for NF-κB and IRF pathway activation quantification.

[3] = tested on: IRF3 signaling pathway; experiment: IRF-Lucia luciferase reporter in THP1-Dual cells; type: cell-based, human; conditions: Nano-11 80 μg/ml, ADU-S100 5 μg/ml; FIG. 1F
Description: as §2

[4] = tested on: GC B cells and follicular helper T (Tfh) cells; experiment: Intradermal immunization with OVA: draining lymph node, GC B cells and Tfh cells; type: in vivo, C57BL/6J mice; conditions: 10 days after second i.d. injection of the ear pinna
Description: (§3) For all experiments, six- to eight-week-old female C57BL/6J mice were purchased from the Jackson Laboratory (Bar Harbor, ME). They were housed in ventilated cages with ad libitum access to food and water, with three to four animals per box. The room was kept at 20±2° C. and 50±15% relative humidity, with a light/dark cycle of 12 hours. An acclimatization period of one week was given to the mice before the onset of the experiments. The Purdue University Animal Care and Use Committee gave approval to all animal experiments. Mice received 20 μl of vaccine through intradermal injection into the pinna of the ear. The vaccines were administered again after 7 or 21 days. Inhalational isoflurane was used to induce anesthesia in mice. Blood and tissue samples were collected 10 days after the second immunization, unless otherwise specified.
as §1, with “CA). The staining protocols were conducted in accordance with the manufacturer's instructions, and unless otherwise specified, all mAbs were obtained from BioLegend.” for “CA).”

[5] = tested on: OVA; experiment: ELISA of serum OVA-specific IgG, IgG1, IgG2c titers; type: in vivo, C57BL/6J mice; conditions: 10 days after second i.d. vaccination with OVA
Description: as §3
OVA-specific IgG, IgG1, and IgG2c titers were measured by enzyme-linked immunosorbent assays (ELISA) on serum samples taken 10 days following the second vaccination, as previously reported (Hernandez-Franco (2021)). […] The reaction was stopped with the addition of 50 μl 2 M sulfuric acid, and absorbance at 450 nm (OD 450) was determined using the Synergy HT microplate reader (BioTek, Winooski, VT). End-point titers for OVA-specific antibodies were determined when the dilution at which OD 450 nm approached 0.2. […]

[6] = tested on: SIINFEKL-specific B3Z CD8+ T cell hybridoma; experiment: B3Z antigen cross-presentation assay with DC2.4 cells; type: cell-based, murine; conditions: OVA with 80 μg/ml Nano-11 and/or 5 μg/ml ADU-S100; OD 590
Description: The B3Z CD8^+ T cell hybridoma cell line that expresses β-galactosidase under the control of the IL-2 promoter was utilized to detect antigen cross-presentation of the OVA 257-264 (SIINFEKL, InvivoGen, San Diego, CA) peptide (see Cruz et al., Annu. Rev. Immunol. 35: 149-176 (2017), which is incorporated herein by reference). Briefly, DC2.4 cells at 1×10^5 cells/well on 96-well round bottom plates were cultured in complete RPMI containing 10% FBS. The DC2.4 cells were stimulated with 10, 100, or 1,000 μg/ml OVA adsorbed to 80 μg/ml Nano-11 or the NanoST nanoparticle adjuvant comprised of 80 μg/ml Nano-11 and 5 μg/ml ADU-S100 (NanoST) for 3 hours at 37° C. with 5% CO2. Cells in media only or treated with 0.5 μg/ml OVA 257-264 (SIINFEKL) served as negative and positive controls, respectively. The cells were centrifuged at 300×g for 5 minutes and then washed three times with 200 μl of sterile PBS/0.1% BSA. Following fixation with 200 μl of phosphate-buffered saline (PBS)/0.2% paraformaldehyde for 15 minutes at 4° C., cells were washed twice with complete RPMI. Each well was seeded with 1×10^5 B3Z cells in complete RPMI containing 10% FBS for 16 hours at 37° C. with 5% CO2. […] After 2, 4, 6, 8, 12, and 24 hours, the conversion of […] was quantified by measuring the absorbance at 590 nm (OD 590) using a microplate reader (BioTek Instruments, Winooski, VT).

[7] = tested on: human STING alleles; conditions: cited from earlier work
[8] = tested on: metastatic solid tumors or lymphomas; conditions: intra-tumoral injection, patients; cited from earlier work
[9] = tested on: recurrent or metastatic head and neck squamous cell carcinoma; conditions: in conjunction with pembrolizumab; cited from earlier work
[10] = tested on: tumor-specific CD8+ T cells; conditions: intratumoral injection; cited from earlier work
[11] = tested on: B16-OVA melanoma cells; experiment: Preventive intradermal vaccination, B16-OVA tumor challenge; type: in vivo, C57BL/6J mice; conditions: two i.d. immunizations, three-week interval, then s.c. inoculation
Description: (§4) The efficacy of preventive cancer vaccines was investigated by two intradermal injections with OVA, Nano-11+OVA, NanoST+OVA, or PBS with a 21-day interval. Eleven days following the second injection, mice were inoculated subcutaneously in the flank with 1.0×10^6 B16-OVA, B16, or 2.5×10^6 E.G7-OVA cells suspended in 100 μl of PBS. […] Using a caliper, the length (maximum longitudinal dimension) and width (maximum transverse dimension) of the subcutaneous tumor were measured in order to determine the approximate volume. Tumor volume was calculated using the ellipsoidal formula: V=½×(Length×Width^2). Each tumor was measured by three observers to account for interobserver variability. The tumor endpoint measurements were taken when the tumors reached a volume of 2,000 mm^3, when the tumors became ulcerated, when the body condition scores dropped below 2, or when the mice became moribund. Mice without palpable tumors 32 days after tumor inoculation were considered tumor-free and euthanized.
(§5) To evaluate the contribution of CD4^+ and CD8^+ T cells response to prophylactic-mediated vaccine protection against B16-OVA and E.G7-OVA tumor formation, C57BL/6J mice were vaccinated with OVA, Nano-11+OVA, or NanoST+OVA, and 21 days later the vaccination was repeated. […] The tumor growth and survival of mice were monitored for 33 days post-tumor inoculation.

[12] = tested on: E.G7-OVA lymphoma cells; experiment: Preventive intradermal vaccination, E.G7-OVA tumor challenge; type: in vivo, C57BL/6J mice; conditions: two i.d. immunizations, three-week interval, then s.c. inoculation
Description: as §4, §5

[13] = tested on: B16-OVA tumors; experiment: Therapeutic intradermal vaccination of B16-OVA-bearing mice; type: in vivo, C57BL/6J mice; conditions: i.d. vaccination at 8 and 15 days post-tumor inoculation
Description: (§6) To mimic therapeutic immunotherapy, C57BL/6J mice were injected subcutaneously (s.c.) with 1.0×10^6 B16-OVA or 2.5×10^6 E.G7-OVA cells on day 0 to establish the tumor model. The B16-OVA-bearing mice received the same intradermal prophylactic vaccination (OVA, Nano-11+OVA, or NanoST+OVA) 8 days after tumor inoculation, followed by a second injection on day 15. The identical vaccination regimen was administered to E.G7-OVA-26 bearing mice at 1 and 21 days after tumor inoculation. The tumor endpoint measurements were recorded as described under prophylactic cancer vaccines. Mice without visible tumors were deemed tumor-free and euthanized 32 or 33 days post-tumor inoculation.

[14] = tested on: E.G7-OVA tumors; experiment: Therapeutic intradermal vaccination of E.G7-OVA-bearing mice; conditions: by day 10
Description: as §6

Compound | CD80 expression ([1]; FIGS. 1A, 1C) | CD86 expression ([1]; FIGS. 1B, 1D) | NF-κB activation [2] | IRF3 activation [3] | size of draining lymph node (superficial parotid) [4] | anti-OVA IgG1 titer [5] | anti-OVA total IgG titer [5] | cross-presentation of OVA and activation of B3Z CD8+ T cells by DC2.4 cells [6] | affinity to human STING alleles [7] | anti-tumor activity [8] | dose-limiting toxicities [8] | adverse reactions [9] | anti-tumor efficacy [9] | generation of tumor-specific CD8+ T cells [10] | development of B16-OVA tumors [11] | development of E.G7-OVA lymphomas [12] | survival of B16-OVA tumor-bearing mice [13] | tumor formation [14] [%]
Nc1ncnc2c1ncn2[C@@H]1O[C@@H]2COP(=O)([S-])O[C@@H]3[C@H](O)[C@@H](COP([O-])(=S)O[C@H]2[C@H]1O)O[C@H]3n1cnc2c(N)ncnc21.[Na+].[Na+] (stereo partly drawn) [ADU-S100] | induced CD80 expression | neither of which had any effect on CD86 expression | activated NF-κB and IRF3 | activated NF-κB and IRF3 | enlarged draining lymph node | enhanced anti-OVA total IgG and IgG1 titers | enhanced anti-OVA total IgG and IgG1 titers | decreased the cross-presentation of OVA | superior affinity to all known human STING alleles | failed to demonstrate conclusive evidence of anti-tumor activity | no dose-limiting toxicities | no adverse reactions | only modest anti-tumor efficacy | leads to the generation of tumor-specific CD8 | – | – | – | –
OVA: endotoxin-free ovalbumin, model tumor-specific antigen, given unadjuvanted | – | – | – | – | – | – | – | – | – | – | – | – | – | – | positive for tumors | positive for tumors | none of the OVA-vaccinated mice survived to day 20 | 100
